Assay results reported in patent US11357786B2, “Synthetic disugar hydrocarbons as natural analogs to control microbial behaviors” (Syracuse University, priority 2014, dated 2022).
“Also recorded” adds a separate entry of the source. Where two headings read alike, the source gives them in different places.

Assays:
Assay type in all cases: cell-based, Pseudomonas aeruginosa
[1] = tested on: wild type PAO1; assay: Swarming motility of wild type PAO1 on soft agar (antagonist assay); details: for Swarming of wild type PAO1: 110 μM in soft agar; for Effect on PAO1 swarming: concentration not given; for Concentration of activity reversal for swarming inhibition of PAO1 (transition concentration): soft agar
Outline: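 Wild-type PAO1 culture (OD600 ~0.4–0.6, 3 μl) spotted on M8 swarm agar with 0.2% glucose, 0.5% casamino acids, 1 mM MgSO4 and 0.5% agar. Plates incubated 12 h at 37 °C then 12 h at room temperature; swarm area measured by cutting and weighing printed plate images.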

[2] = tested on: 1-day old PAO1 biofilm; assay: Crystal violet assay for dispersion of 1-day old biofilm, DSHs (Examples 2 and 4)
Description: The effect that DSHs have on the adhesion of PAO1-EGFP on polystyrene surface (microtiter plate) was also examined. PAO1-EGFP is a P. aeruginosa strain that constitutively expresses green fluorescent protein. In the adhesion assays, PAO1-EGFP was grown in microtiter plate for 24-hours in LB-media with (160 μM) or without DSHs. After 24-hours, the fluorescent signal obtained from surface adhered PAO1-EGFP was measured. Percent reduction in fluorescence was calculated by comparing fluorescent signal from PAO1-EGFP grown in LB-media with the signal from wells that had DSHs (FIG. 29A). To study the effect of DSHs on biofilm formation, Pseudomonas aeruginosa (PAO1) was grown in LB-media with (160 μM) or without DSHs at 37° C. under static conditions within wells of microtiter plates. After 24 hours, the surface attached biofilms adhering to the bottom of the wells were stained with crystal-violet dye and the biofilm was quantified by measuring absorbance at 600 nm (OD600). The percent inhibition was calculated by comparing biofilm content of wells with no added agents (control) with the biofilm content from wells that had 160 μM of DSHs (FIG. 29A). Similar to inhibition, the surface attached biofilm after dispersion with DSHs was quantified with crystal-violet staining and absorbance measurement at 600 nm, except that for dispersion, biofilm was first grown for 1 day in just LB-media without any DSHs after which DSHs were added and plates were incubated for additional 24 hours followed by quantification (FIG. 29B).
Crystal violet based assay for quantifying dispersion of 1-day old PAO1 biofilms were Plate for set up similar to inhibition assay with a slight modification. Wells of the micro-titer plate was inoculated with (200 μL) bacterial subculture (PAO1 subculture OD600 ˜0.1). The plates were incubated at 37° C. for 24 hours to allow biofilm formation. After 24 hours, bacterial culture was gently pipetted out and appropriate volume of DSH were added followed by addition of fresh LB medium (200 μL). The microtiter plate was incubated for an additional 24 hours at 37° C., following which, similar to work up of inhibition assay, culture was removed, wells were washed and CV-dye was introduced, followed by washing and destaining with 30% AcOH solution in water and quantification at 600 nm. Here again, only the surface attached biofilm dispersed was reported by comparing wells with DSHs with wells with no agent.
Dose dependence assays for biofilm inhibition and dispersion. […] Both for biofilm inhibition and dispersion, predetermined volumes of DSH stocks were added to the assigned wells to span a concentration range between 0.5 μM-170 μM. Percent biofilm inhibition of dispersion was calculated by comparing to wells with no agent. The percent biofilm inhibition or dispersion was plotted versus concentration of DSHs. The linear values were logarithmically curve fitted using equation […]. The half maximal inhibitory concentration for both biofilm inhibition and dispersion (IC50 and DC50) were thus obtained.

[3] = tested on: nonswarming P. aeruginosa mutant rhlA; assay: Swarming motility of nonswarming rhlA mutant on soft agar (reactivation / agonist assay); details: for Swarming reactivation of rhlA mutant: 110 μM in soft agar; for Concentration that suppresses reactivation of rhlA swarming by DβC: co-administered with 40 μM DβC; for Reactivation of swarming motility of rhlA mutant: concentration not given
Outline: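 rhlA transposon mutant of PAO1 (3 μl, OD600 0.4–0.6) inoculated on M8 soft agar (0.2% glucose, 0.5% casamino acids, 1 mM MgSO4, 0.5% agar) with test compound to find swarming agonists. Incubated 12 h at 37 °C plus 12 h at room temperature; swarm area measured by weighing paper cut-outs of imaged swarms.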

[4] = Example 2, FIG. 20, read-out: Biofilm dispersion DC50
[5] = Example 4, FIG. 31, read-out: Half-maximal dispersion concentration (DC50)
[6] = 85 μM in soft agar (0.5%), 24 h

Structure (SMILES) | Swarming motility of wild type PAO1 ([1]; 20 μM) | Swarming motility of wild type PAO1 ([1]; 85 μM in soft agar, 24 h) | Effect on PAO1 swarming [1] | Concentration of activity reversal for swarming inhibition of PAO1 (transition concentration) [1] | DC50 [2, 4] | DC50 [2, 5] | Swarming motility of rhlA mutant [3, 6] | Concentration of activity reversal for swarming promotion of rhlA mutant (transition concentration) ([3]; soft agar) | Swarming of wild type PAO1 ([1]; 24 h) | Swarming reactivation of rhlA mutant ([3]; 24 h) | other results
CC(C)CCCC(C)CCCC(C)CCO[C@@H]1O[C@H](CO)[C@@H](O[C@@H]2O[C@H](CO)[C@@H](O)[C@H](O)[C@H]2O)[C@H](O)[C@H]1O (stereo partly drawn) [SFβC (12), saturated famesyl-β-cellobioside] | did inhibit the swarming activity of wild type PAO1 | inhibited the swarming motility of wild type PAO1 | inhibitors for PAO1 swarming motility | ~10 to 20 µM | ~36.4 µM | ~44 µM | no apparent effect on rhlA | ~8 µM | – | – | Concentration exhibiting inhibition of PAO1 swarming [1]: > 20 µM; Concentration exhibiting promotion of PAO1 swarming [1]: < 10 µM; Swarm ring of wild type PAO1 as percent of PAO1 without DSHs ([1]; 20 μM): ~5%; Swarm ring area of wild type PAO1 ([1]; 20 μM, control 24 cm2): ~1.2 cm2; Swarming motility of wild type PAO1 ([1]; 20 μM, listed as 12): stronger inhibition than rhamnolipids; Swarming of wild type PAO1 ([1]; 24 h, listed as 12: SFbC): inhabits the swarming of wt PAO1; Swarming of wild type PAO1 ([1]; 24 h, listed as 12: SFβC): completely inhibited the swarming of wt PAO1; Concentration of activity reversal for swarming inhibition of PAO1 (transition concentration) ([1]; listed as 12): 10 to 20 µM; Swarming motility of rhlA mutant ([3]; 20 μM): did not activate the swarming motility; Swarming reactivation of rhlA mutant ([3]; 24 h, listed as 12: SFbC): does not reactivate the swarming of rhlA mutant; Swarming reactivation of rhlA mutant ([3]; 24 h, listed as 12: SFβC): incapable of reactivating the swarming; Concentration that suppresses reactivation of rhlA swarming by DβC [3]: 20 µM; Concentration that suppresses reactivation of rhlA swarming by DβC ([3]; listed as SFβC): ≤ 20 µM; Concentration range in which swarming of rhlA is reactivated ([3]; soft agar, 24 h): 5-12 W; Concentration of activity reversal for swarming promotion of rhlA mutant (transition concentration) ([3]; soft agar, listed as 12): 8 µM; Concentration up to which there is no interference with swarming reactivation of rhlA by DβC ([3]; with 40 μM DβC): up to 10 μM
CCCCCCCCCCCCOCCOCCOCCOCCO [C12EG4OH, tetra (ethylene glycol) monododecyl ether, reference compound] | – | – | – | – | – | – | – | – | – | – | Reactivation of swarming motility of rhlA mutant [3]: do not reactivate the swarming motility; also recorded: did not promote or reactivate; Reactivation of swarming motility of rhlA mutant ([3]; listed as C12EG5OH): did not incur any bioactivity
CC(C)CCCC(C)CCCC(C)CCO[C@@H]1O[C@H](CO)[C@@H](O[C@H]2O[C@H](CO)[C@@H](O)[C@H](O)[C@H]2O)[C@H](O)[C@H]1O (stereo partly drawn) [SFβM (14), saturated farnesyl-β-maltoside] | stronger inhibition than rhamnolipids | inhibited the swarming motility of wild type PAO1 | – | ~7.5 µM | – | ~126 µM | no apparent effect on rhlA | ~10 µM | completely inhibited the swarming of wt PAO1 | incapable of reactivating the swarming | Concentration at which tendrils were induced in PAO1 [1]: ~7.5 µM; Concentration of activity reversal for swarming inhibition of PAO1 (transition concentration) ([1]; listed as 14): 7.5 µM; Swarming area of rhlA ([3]; 10 μM, 24 h): ~14 cm2; Concentration of activity reversal for swarming promotion of rhlA mutant (transition concentration) ([3]; soft agar, listed as 14): 10 µM
CCCCCCCCCCCCOS(=O)(=O)[O-].[Na+] [SDS, sodium dodecyl sulfate, reference compound] | – | – | – | – | – | – | – | – | – | – | Reactivation of swarming motility of rhlA mutant ([3]; sulfate): do not reactivate the swarming motility; also recorded: did not incur any bioactivity; also recorded: did not promote or reactivate
CC(C)CCCC(C)CCCC(C)CCO[C@H]1O[C@H](CO)[C@@H](O[C@@H]2O[C@H](CO)[C@@H](O)[C@H](O)[C@H]2O)[C@H](O)[C@H]1O (stereo partly drawn) [SFαC (13), saturated farnesyl-α-cellobioside] | – | inhibited the swarming motility of wild type PAO1 | inhibitors for PAO1 swarming motility | – | ~78.4 µM | ~89 µM | no apparent effect on rhlA | – | completely inhibited the swarming of wt PAO1 | incapable of reactivating the swarming | –
